Values quoted from earlier work, collected in patent US10325677B2, “Apparatus and computerized method for optimizing or generating a sigma profile for a molecule” (Texas Tech University System, priority 2014, dated 2019).

Details: published in the literature

NRTL-SAC Conceptual Segment Number X: −0.105
NRTL-SAC Conceptual Segment Number Y^+: 1.211
NRTL-SAC Conceptual Segment Number Y^−: 0.282
NRTL-SAC Conceptual Segment Number Z: 0.211
SMILES: Cn1c(=O)c2c(ncn2C)n(C)c1=O [Caffeine, caffeine]
